Patent publication US9669014B2, “Small molecule inhibitors of superoxide dismutase expression” (Northwestern University, priority 2014, dated 2017)
“Also recorded” adds a separate entry of the source.

Experiments:
[1] = system: SOD1 mRNA; assay: SOD1 mRNA in G93A-SOD1 mouse fibroblasts; assay type: cell-based
Source text: FIG. 3. […] A. Dose-dependent changes in G93A-SOD1 protein expression and B. SOD1 mRNA (n=3). Data are normalized to GAPDH activity (protein) or mRNA. Error bars are SEM.

[2] = Distribution in tissues of nontransgenic mice after injection; assay type: in vivo, mouse; conditions: 20 mg/kg intraperitoneal; for Concentration (μM), Brain / Concentration (μM), Serum / Concentration (μM), Spinal cord: n = 2
Experimental: The blood brain barrier permeability of GSK3B-II was determined in nontransgenic mice. […] The peak and sustained concentrations found in the spinal cord and brain indicate that the 20 mg/kg dose puts the drug into the inhibitory range found in the cellular assays.
We also tested compound NUCC-434 for distribution in non-transgenic mice. […] While there are a multitude of methods for improving aqueous solubility of drugs (32) we chose a relatively simple route using a cyclodextrin based carrier (Sulfo-butylether beta-cyclodextrin, Captisol) to solubilize the drug in aqueous solution. Using the cyclodextrin carrier, we were able to solubilize NUCC-434 to 2 mg/mL in water and deliver 10 mg/kg to nontransgenic mice for pharmacokinetics. […] However, the distribution dynamics are different in the presence of the cyclodextrin which appears to slow uptake into the CNS as the peak drug concentration was delayed (Table 4). Such changes in distribution dynamics using cyclodextrins have not been studied in detail.

[3] = system: G93A-SOD1 expression; assay: SOD1 protein expression in cultured fibroblasts from G93A-SOD1 mice (ELISA); assay type: cell-based, mouse; conditions: G93A-SOD1 mouse fibroblasts; for IC50: 48 hr treatment
Experimental: Fibroblasts were treated with the title compounds at the indicated concentration for 48 hr. Cells were washed, lysed, and SOD1 levels measured by ELISA. SOD1 levels are normalized to the total protein in the lysate.
Thus, we used cultured fibroblasts from the G93A-SOD1 transgenic mouse to screen GSK3β protein kinase inhibitors (FIG. 1) for their effects on SOD1 expression. The transgene construct contains the human SOD1 promoter so that cellular signaling processes that affect transcription of the gene will be fully functional. We chose a structurally diverse group of compounds including some natural products.

[4] = system: SOD1; assay: SOD1 protein in CNS tissues of treated G93A-SOD1 mice (ELISA); assay type: in vivo, mouse; conditions: 20 mg/kg IP every other day for 26 days
Experimental: FIG. 7. Inhibition of SOD1 protein expression in the G93A-SOD1 mouse. GSK3B-I treatment was at 20 mg/kg IP every other day for 26 days. Mice were sacrificed and SOD1 measured in the indicated tissues. […] Error bars are SEM.
Initial testing was carried out in a small cohort (5-6 animals) of G93A-SOD1 mice (high level of mutant SOD1 expression). The drug was dosed at 20 mg/kg IP every other day for 26 days. Mice were sacrificed and SOD1 was measured by ELISA.

[5] = system: SOD1 expression; assay: SOD1 expression in G93A-SOD1 transgenic mouse motor neurons; assay type: cell-based
Source text: The compound decreases SOD1 expression in vitro in assays done in mouse fibroblasts (FIG. 3) and mouse motor neurons (FIG. 7).
The mechanism of inhibition is largely due to a decrease in the G93A-SOD1 mRNA. The transgene expressed in the mouse uses the native human promoter. Thus, therapy with these drugs in human subjects would also lead to a decrease in SOD1 mRNA in all tissues.

[6] = target: GSK3β (Homo sapiens, UniProt P49841); conditions: published values; cited from earlier work
Sequence of GSK3β (P49841 whole entry, species assumed): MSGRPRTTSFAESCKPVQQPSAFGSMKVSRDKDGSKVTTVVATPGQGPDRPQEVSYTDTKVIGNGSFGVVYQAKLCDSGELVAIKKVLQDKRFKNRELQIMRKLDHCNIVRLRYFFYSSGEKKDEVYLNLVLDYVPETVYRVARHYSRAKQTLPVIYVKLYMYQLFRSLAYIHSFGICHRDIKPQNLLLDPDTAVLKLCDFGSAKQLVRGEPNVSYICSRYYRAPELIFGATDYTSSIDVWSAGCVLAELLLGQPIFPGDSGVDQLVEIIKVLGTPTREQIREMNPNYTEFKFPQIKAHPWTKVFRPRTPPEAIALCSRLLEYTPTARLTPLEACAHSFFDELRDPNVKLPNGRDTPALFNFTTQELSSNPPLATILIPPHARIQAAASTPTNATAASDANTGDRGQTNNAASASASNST

[7] = system: cell toxicity; assay: Cell toxicity; assay type: cell-based

SMILES	Effect on SOD1 mRNA [1]	Concentration (μM), Brain ([2]; 1 hr)	Concentration (μM), Serum ([2]; 1 hr)	Concentration (μM), Spinal cord ([2]; 1 hr)	Concentration (μM), Brain ([2]; 24 hr)	Concentration (μM), Serum ([2]; 24 hr)	Concentration (μM), Spinal cord ([2]; 24 hr)	CNS distribution and persistence (in words) ([2]; nontransgenic mice)	Effect on SOD1 expression (in words) [3]	Shape of dose-response curve for SOD1 expression [3]	IC50 [3]	Change of SOD1 protein in spinal cord, cerebellum, brain stem, cerebral cortex [4]	Change of SOD1 protein in spinal cord, cerebellum, brain stem, cerebral cortex ([4]; listed as GSK3B-I)	Effect on SOD1 expression in motor neurons [5]	IC50 [6]	Concentration at which cell toxicity is exhibited [7]
Ic1cccc(CSc2nnc(-c3ccncc3)o2)c1 [GSK3B-II, reference compound]	reducing the level of SOD1 mRNA	0.944 µM	0.672 µM	4.00 µM	0.077 µM	0.073 µM	0.855 µM	rapidly distributes into the brain and spinal cord; also recorded: still detectable after 24 hrs in the brain and spinal cord	most potent at inhibiting G93A-SOD1 expression; also recorded: dose dependent reduction of SOD1 expression in vitro	biphasic dose-response curve	625 nM	significant decreases in SOD1 were measured; also recorded: SOD1 protein is reduced	change in expression was significant	inhibits SOD1 expression	–	–
O=C(CCl)c1cc(Br)c(Br)s1 [GSK3B-VI, reference compound]	–	–	–	–	–	–	–	–	inhibits SOD1 expression	–	650 nM	–	–	–	1000 nM	greater than 5 μM
